According to publication PMC7532663, “Pharmacological inhibition of mTORC1 increases CCKBR-specific tumor uptake of radiolabeled minigastrin analogue [^177Lu]Lu-PP-F11N” (Theranostics, 2020):
Where “and” joins values, the source holds several entries; their conditions need not be identical. Equal entries are not always repeated.

Assays:
AR42J cells [1] = experiment: Total protein concentration of cell lysates; format: cell-based, rat; conditions: 100 nM RAD001
Description: (§1) […]. […] […].

[2] = tested on: β-arrestin-1 recruitment to CCKBR; experiment: Split luciferase arrestin recruitment assay; format: cell-based, human; conditions: RAD001 20 h, then 1 µM PP-F11N
[3] = tested on: mTORC1-regulated phosphorylation of the ribosomal protein S6 at Ser235/236; experiment: WB analysis of phospho-S6; format: cell-based, human
Method: (§2) Antibodies against phospho-S6 at S235/S236 (D57.2.2F), ERK1/2 (9102), phospho-ERK1/2 (T202/Y204), GAPDH (14C10) and HA-Tag (C29F4) were obtained from Cell Signaling Technology, whereas the anti-CCKBR (ab77077) was from Abcam. Cells were homogenized in lysis buffer (50 mM Tris-HCl pH 7.5, 150 mM NaCl, 1% Triton X, 0.1% SDS supplemented with 1 mM sodium orthovanadate, 1 mM NaF and protease inhibitor cocktail (Roche)). 50 μg of total protein lysates were separated by SDS-PAGE and transferred to PVDF membranes (Millipore) by electroblotting. Membranes were blocked with 5% skim milk in TBST (0.1% Tween 20) for 1 h, and incubated with 2% BSA in TBST overnight with the primary antibody followed by 2 h incubation with HRP-conjugated secondary antibody. Signals were produced by using a chemiluminescence reagent (ECL) and acquired by ImageQuant RT ECL Imager (GE Healthcare). Prior to CCKBR detection by WB, protein lysates were subjected to deglycosylation. Briefly, 18 μL of total protein lysates (50 µg) were mixed with 2 μL of 10× denaturing buffer (5% SDS, 0.4 M DTT) and incubated for 10 min at RT. Next, 4 μL of 10× Glycobuffer (0.5 M sodium phosphate, pH 7.5), 4 μL of 10% Tween-20 and 10 μL of water were added. Finally, 2 μL of PNGase F (Sigma) was added and the reaction was carried out for 16 h at 37°C.

[4] = tested on: A431/CCKBR-tumor bearing nude mice; experiment: Tumor volume, mouse weight and toxicity during treatment; format: in vivo
[5] = tested on: A431/CCKBR-tumor bearing nude mice
[6] = tested on: β-arrestin-2 recruitment to CCKBR; experiment: Split luciferase arrestin recruitment assay; format: cell-based, human; conditions: RAD001 20 h, then 1 µM PP-F11N
AR42J cells [7] = format: cell-based, rat
Description: as §1

A431/CCKBR tumors = experiment: HE staining and immunohistochemistry of tumor sections; format: in vivo, mouse
Method: Formalin-fixed, paraffin tumor sections were deparaffinized, rehydrated and pretreated in 10 mM citrate buffer, pH 6.0, at 98 °C for 60 minutes, followed by incubation with 4% fat-free milk in PBS for 90 minutes. For avidin/biotin blocker treatment (Invitrogen) and detection, the ABC method was used. For monoclonal antibody against Ki67 (SP6, Thermo Scientific) and CD34 (cloneQBend/10; Dako) signals were recorded using an automated instrument reagent system (Discovery XT, Ventana Medical System Inc.). Images of hematoxylin-counterstained sections were captured (Nikon, YTHM) and analyzed using ImageAccess Enterprise7 and ImageJ software. Tumor necrotic areas and vascularization were analyzed in 10 (RAD001 and PBS) and 8 (metformin) images, whereas Ki67 and mitotic index in 15 (RAD001 and PBS) and 12 (metformin) images.

A431/CCKBR cells [8] = experiment: Hoechst fluorescence cell number control; format: cell-based, human; conditions: RAD001 pretreatment 20 h
A431/CCKBR cells [9] = experiment: Total protein concentration of cell lysates; format: cell-based, human; conditions: 100 nM RAD001 or 10 mM metformin, 20 h
Description: as §1

A431 cells = experiment: Total protein concentration of cell lysates; format: cell-based, human; conditions: 100 nM RAD001
Description: as §1

CCKBR = experiment: WB analysis of CCKBR protein level in deglycosylated lysates; format: cell-based, human; conditions: 50 or 100 nM RAD001, 20 h; A431/CCKBR; CCKBR/GAPDH
Method: as §2

A431/CCKBR cells [10] = conditions: 100 nM RAD001 or 10 mM metformin
Method: Radioactive medium (and PBS wash) was collected and the cells were washed 2× with glycine buffer (pH=2) for 5 min at RT followed by a dissolving step in 1 M NaOH for 15 min at 37°C. All 3 fractions (medium/PBS; glycine; dissolved cells) were measured on Cobra II Auto-Gamma counter (Packard). For the cell uptake analysis, the PBS-washed cells were directly dissolved in 1M NaOH, or combined glycine-wash and 1M NaOH dissolved cells, were measured on the Gamma counter. […] Protein concentration of cell lysates was measured by using NanoPhotometer® UV-Vis P-Class (Implen).

**Q.** With `CO[C@H]1C[C@@H]2CC[C@@H](C)[C@@](O)(O2)C(=O)C(=O)N2CCCC[C@H]2C(=O)O[C@H]([C@H](C)C[C@@H]2CC[C@@H](OCCO)[C@H](OC)C2)CC(=O)[C@H](C)/C=C(\C)[C@@H](O)[C@@H](OC)C(=O)[C@H](C)C[C@H](C)/C=C/C=C/C=C/1C` [RAD001, Everolimus] as the compound, how does the “total protein level compared to control” value (AR42J cells [1]) read?
**A.** 84%

**Q.** And the “effect of RAD001 on β-arrestin-1 recruitment” value [2]?
**A.** no difference

**Q.** And the “S6 phosphorylation (WB)” value ([3]; 20 h incubation with 50, 100 and 200 nM RAD001, A431/CCKBR)?
**A.** inhibited S6 phosphorylation

**Q.** What about the “phosphorylation of S6 at Ser235/236 (WB)” value ([3]; A431/CCKBR cells, 100 nM RAD001 or 10 mM metformin) of the same compound?
**A.** lack of mTORC1-regulated phosphorylation

**Q.** What about the mouse weight ([4]; 3 daily doses) of the same compound?
**A.** without influencing overall mouse weight

**Q.** What about the tumor volume ([4]; 3 daily doses) of the same compound?
**A.** significantly reduced tumor volumes

**Q.** What about the mouse weight ([4]; 5 days daily treatment) of the same compound?
**A.** without influencing overall mouse weight

**Q.** And the tumor volume ([4]; 5 days daily treatment)?
**A.** significantly reduced tumor volumes

**Q.** And the “influence on [177Lu]Lu-PP-F11N tumor uptake” value ([5]; three doses of metformin or one RAD001 dose)?
**A.** only moderately and did not reach statistical significance

**Q.** What about the “[177Lu]Lu-PP-F11N uptake in tumors of matching sizes” value ([5]; tumors ranging from 50-150 or 50-180 mg) of the same compound?
**A.** statistically significant increase

**Q.** And the “effect of RAD001 on β-arrestin-2 recruitment” value [6]?
**A.** no difference

**Q.** And the “internalization ratio [RAD001/control]” value (AR42J cells [7])?
**A.** 1.7

**Q.** What about the “[177Lu]Lu-PP-F11N internalization in treated cells” value (AR42J cells [7]; 100 nM RAD001) of the same compound?
**A.** 10%

**Q.** What about the mitotic index (A431/CCKBR tumors; 5 days treatment, mean ± SD) of the same compound?
**A.** 0.75% and 0.75 ± 0.36%

**Q.** And the tumor vascularization (A431/CCKBR tumors; HE and CD34, five-day treatment)?
**A.** No significant difference

**Q.** What about the “necrosis (necrotic area)” value (A431/CCKBR tumors; HE stain, 5 days treatment, mean ± SD) of the same compound?
**A.** 10.6 ± 6.4%

**Q.** And the Ki67 positive cells (A431/CCKBR tumors; IHC, 5 days treatment, mean ± SD)?
**A.** 61% and 61 ± 8.6%

**Q.** And the “cell number by Hoechst fluorescence” value (A431/CCKBR cells [8])?
**A.** significantly reduced cell number

**Q.** And the “total protein level compared to control” value (A431/CCKBR cells [9])?
**A.** 79%

**Q.** And the “total protein level compared to control” value (A431 cells)?
**A.** 79%

**Q.** What about the “increase of CCKBR level” value (CCKBR) of the same compound?
**A.** 2.2 fold

**Q.** What about the “internalization ratio [treatment/control]” value (A431/CCKBR cells [10]; 20 h) of the same compound?
**A.** 1.5

**Q.** What about the “[177Lu]Lu-PP-F11N internalization in treated cells” value (A431/CCKBR cells [10]; 20 h treatment, 0.3 pmol radioligand 1 h, triplicate) of the same compound?
**A.** 24.3%
